Our source for the IC50 values is ChEMBL document CHEMBL6120939, “STATs, promising targets for the treatment of autoimmune and inflammatory diseases” (Eur J Med Chem, 2024).

A short description of test [1]: Inhibition of C57BL/6 mouse Th17 cell differentiation from CD4+ T cells assessed as reduction in IL-17a mRNA expression incubated for 96 hrs by qPCR analysis. The class given is functional, cell-based. Particulars: C57BL/6, Th17, 96 h.
In test [2] the test system is Mus musculus. Nature of the test: Anti-asthmatic activity in OVA-induced ip dosed female BALB/c mouse model assessed as reduction in pulmonary IL-13 level administered for 30 min measured after 21 days by ELISA. The test is classed as functional, organism-based.
The next test deals with Rattus norvegicus. The experiment in a line: Antiinflammatory activity against TNBS-induced colitis in Sprague-Dawley rat model assessed as reduction in colon TNFalpha level at 1 mg/kg, po administered for 5 days by ELISA. The class given is functional, organism-based. The following applies: 120 h.
The test system of test [3] is Mus musculus. The experiment in a line: Anti-inflammatory activity against DSS-induced acute colitis C57BL/6J mouse model assessed as reduction in IL-1beta level in colon at 10 to 20 mg/kg, po measured for 7 days by ELISA analysis. The test is classed as functional, organism-based. Particulars: 168 h.
For test [4], the target named is Signal transducer and activator of transcription 3 (Homo sapiens, UniProt P40763). Nature of the test: Inhibition of STAT3 phosphorylation in human HepG2 cells by immuno-fluorescence analysis. The class given is cell-based.
Signal transducer and activator of transcription 3, sequence (P40763 whole entry): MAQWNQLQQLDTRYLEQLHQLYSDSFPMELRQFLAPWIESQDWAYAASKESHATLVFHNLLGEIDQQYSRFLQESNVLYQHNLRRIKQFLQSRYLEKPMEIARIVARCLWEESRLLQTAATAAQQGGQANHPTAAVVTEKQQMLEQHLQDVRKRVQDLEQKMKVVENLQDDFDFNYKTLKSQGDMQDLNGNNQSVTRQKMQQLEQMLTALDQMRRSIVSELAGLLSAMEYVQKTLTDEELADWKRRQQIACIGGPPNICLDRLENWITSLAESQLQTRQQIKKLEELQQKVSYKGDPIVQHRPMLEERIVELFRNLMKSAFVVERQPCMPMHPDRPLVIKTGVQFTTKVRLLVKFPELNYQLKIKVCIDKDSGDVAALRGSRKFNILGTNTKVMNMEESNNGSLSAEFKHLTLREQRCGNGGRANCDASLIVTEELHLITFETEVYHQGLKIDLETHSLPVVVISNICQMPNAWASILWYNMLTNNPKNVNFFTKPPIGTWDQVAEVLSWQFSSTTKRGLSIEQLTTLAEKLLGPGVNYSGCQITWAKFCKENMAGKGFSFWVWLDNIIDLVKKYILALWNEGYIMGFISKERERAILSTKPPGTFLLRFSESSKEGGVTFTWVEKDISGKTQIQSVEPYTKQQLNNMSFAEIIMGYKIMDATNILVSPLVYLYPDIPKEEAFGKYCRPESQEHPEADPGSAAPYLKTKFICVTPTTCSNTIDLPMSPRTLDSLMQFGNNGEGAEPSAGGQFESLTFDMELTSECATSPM

Consider `CN(C)C(=O)Oc1cccc2c1C(=O)c1cccc(S(N)(=O)=O)c1C2=O`, for which, in test [1], the IC50 came to 220 nM.
`NC(=O)c1cnc(Nc2ccc(N3CCOCC3)cc2)nc1NCc1c(F)ccc(F)c1F`: the IC50 with Mus musculus [2] stood at 0.7 nM.
In the case of `NS(=O)(=O)c1cccc2c1C(=O)c1cccc(O)c1C2=O`, the concentration for half-maximal inhibition (IC50) in test [1] turned out to be 180 nM.
Turning to `COc1ccc(S(=O)(=O)Nc2cc(-c3c(O)ccc4ccccc34)c(O)c3ccccc23)cc1` [C-188-9], the IC50 in the test on Rattus norvegicus was 4000 nM.
Take `Cc1cc(OCCCS(C)(=O)=O)cc(C)c1-c1cccc(COc2ccc3c(c2)OC[C@H]3CC(=O)O)c1` [FASIGLIFAM]: the 50% inhibitory concentration (IC50) with Mus musculus [3] was 4740 nM.
In the case of `Cc1ccc(S(=O)(=O)OCC(=O)Nc2ccc(C(=O)O)c(O)c2)cc1`, in the test with Rattus norvegicus, the IC50 is 86000 nM.
In test [4], `CC1CC(=O)c2c(ccc3c2C(=O)c2cccc(O)c2C3=O)C1` (stereo not drawn) returned a half-maximal inhibitory concentration (IC50) of 12200 nM.
Take `NC(=O)c1cnc(NCCc2ccc(O)c(Cl)c2)nc1NCc1ccccc1`: the IC50 in the test with Mus musculus [2] was found to be 21 nM.
